Test system: MV-4-11 cells
Assay: Gene expression microarray analysis (Affymetrix PrimeView) and GSEA
Format: cell-based, human
Parameters: RFU PODN (11730768_x_at) / Fold change /veh PODN (11730768_x_at) / RFU LINC00158 (11744669_a_at) / Fold change /veh LINC00158 (11744669_a_at) / RFU DUSP10 (11751237_a_at) / Fold change /veh DUSP10 (11751237_a_at) / RFU ID3 (11757404_x_at) / Fold change /veh ID3 (11757404_x_at) / RFU PLEKHG5 (11737974_s_at) / Fold change /veh PLEKHG5 (11737974_s_at) / RFU LRRC4B (11730491_at) / Fold change /veh LRRC4B (11730491_at) / RFU GIMAP4 (11747438_a_at) / Fold change /veh GIMAP4 (11747438_a_at) / RFU KRT8 (11758183_x_at) / Fold change /veh KRT8 (11758183_x_at) / RFU CNN1 (11734310_a_at) / Fold change /veh CNN1 (11734310_a_at) / RFU VPS37D (11726825_at) / Fold change /veh VPS37D (11726825_at) / RFU C10orf10 (11716522_x_at) / Fold change /veh C10orf10 (11716522_x_at) / RFU KIR2DL2 /// KIR2DL4 /// KIR2DL5A /// KIR2DL5B /// KIR2DS1 /// KIR2DS2 /// KIR2DS3 /// KIR2DS4 /// KIR3DL3 /// KIR3DL3 /// KIR3DS1 (11738374_at) / Fold change /veh KIR2DL2 /// KIR2DL4 /// KIR2DL5A /// KIR2DL5B /// KIR2DS1 /// KIR2DS2 /// KIR2DS3 /// KIR2DS4 /// KIR3DL3 /// KIR3DL3 /// KIR3DS1 (11738374_at) / RFU C1QL1 (11718748_at) / Fold change /veh C1QL1 (11718748_at) / RFU TMPRSS4 (11747572_a_at) / Fold change /veh TMPRSS4 (11747572_a_at) / RFU HAMP (11756126_x_at) / Fold change /veh HAMP (11756126_x_at) / RFU RNFT2 (11725882_a_at) / Fold change /veh RNFT2 (11725882_a_at) / RFU NR4A2 (11747474_a_at) / Fold change /veh NR4A2 (11747474_a_at) / RFU ABCC12 (11746883_a_at) / Fold change /veh ABCC12 (11746883_a_at) / RFU TMEM136 (11760407_x_at) / Fold change /veh TMEM136 (11760407_x_at) / RFU CLDN22 /// WWC2 (11732394_at) / Fold change /veh CLDN22 /// WWC2 (11732394_at) / RFU HLA-DPB1 (11760878_x_at) / Fold change /veh HLA-DPB1 (11760878_x_at) / RFU SPINT1 (11716480_a_at) / Fold change /veh SPINT1 (11716480_a_at) / RFU GAP43 (11754022_s_at) / Fold change /veh GAP43 (11754022_s_at) / RFU A4GNT (11735810_at) / Fold change /veh A4GNT (11735810_at) / RFU PRB3 (11715151_x_at) / Fold change /veh PRB3 (11715151_x_at) / RFU TUBB4B (11761932_at) / Fold change /veh TUBB4B (11761932_at) / RFU CAPN14 (11732068_a_at) / Fold change /veh CAPN14 (11732068_a_at) / RFU TMCC2 (11721928_a_at) / Fold change /veh TMCC2 (11721928_a_at) / RFU IRGQ (11745062_a_at) / Fold change /veh IRGQ (11745062_a_at) / RFU FAM174B (11720279_a_at) / Fold change /veh FAM174B (11720279_a_at) / RFU TMPRSS4 (11748680_a_at) / Fold change /veh TMPRSS4 (11748680_a_at) / RFU FAM212B (11763350_a_at) / Fold change /veh FAM212B (11763350_a_at) / RFU PLEKHG5 (11743358_a_at) / Fold change /veh PLEKHG5 (11743358_a_at) / RFU ZSCAN30 (11745921_a_at) / Fold change /veh ZSCAN30 (11745921_a_at) / RFU CMKLR1 (11741424_a_at) / Fold change /veh CMKLR1 (11741424_a_at) / RFU LOC101060620 /// MAPK8IP1 (11723275_at) / Fold change /veh LOC101060620 /// MAPK8IP1 (11723275_at) / RFU SPTSSB (11747773_x_at) / Fold change /veh SPTSSB (11747773_x_at) / RFU PRSS12 (11739890_at) / Fold change /veh PRSS12 (11739890_at) / RFU BIN1 (11741810_x_at) / Fold change /veh BIN1 (11741810_x_at) / RFU WNT11 (11732464_a_at) / Fold change /veh WNT11 (11732464_a_at) / RFU C10orf10 (11716521_a_at) / Fold change /veh C10orf10 (11716521_a_at) / RFU C5orf56 (11738089_at) / Fold change /veh C5orf56 (11738089_at) / RFU CYB561 (11721691_x_at) / Fold change /veh CYB561 (11721691_x_at) / RFU ANKRD19P (11752326_a_at) / Fold change /veh ANKRD19P (11752326_a_at) / RFU OR2T12 /// OR2T33 /// OR2T8 (11738714_s_at) / Fold change /veh OR2T12 /// OR2T33 /// OR2T8 (11738714_s_at) / RFU VCAN (11748164_a_at) / Fold change /veh VCAN (11748164_a_at) / RFU JSRP1 (11732532_at) / Fold change /veh JSRP1 (11732532_at) / RFU KRTAP10-11 (11738290_x_at) / Fold change /veh KRTAP10-11 (11738290_x_at) / RFU MYO3A (11730013_a_at) / Fold change /veh MYO3A (11730013_a_at) / RFU EBF3 (11725865_a_at) / Fold change /veh EBF3 (11725865_a_at) / RFU CAMK2N1 (11719241_x_at) / Fold change /veh CAMK2N1 (11719241_x_at) / RFU C5orf56 (11738088_a_at) / Fold change /veh C5orf56 (11738088_a_at) / RFU OLFML3 (11715873_a_at) / Fold change /veh OLFML3 (11715873_a_at) / RFU LOC100653217 /// NTM (11731650_a_at) / Fold change /veh LOC100653217 /// NTM (11731650_a_at) / RFU MAPK11 (11762145_a_at) / Fold change /veh MAPK11 (11762145_a_at) / RFU FIZ1 (11724087_x_at) / Fold change /veh FIZ1 (11724087_x_at) / RFU OASL (11726364_x_at) / Fold change /veh OASL (11726364_x_at) / RFU SOX15 (11748057_x_at) / Fold change /veh SOX15 (11748057_x_at) / RFU CD79A (11719716_a_at) / Fold change /veh CD79A (11719716_a_at) / RFU HIST1H1D (11736915_at) / Fold change /veh HIST1H1D (11736915_at) / RFU CASKIN2 (11723855_a_at) / Fold change /veh CASKIN2 (11723855_a_at) / RFU LOC730098 (11760151_x_at) / Fold change /veh LOC730098 (11760151_x_at) / RFU OR4N2 (11742367_at) / Fold change /veh OR4N2 (11742367_at) / RFU PRRT2 (11749266_a_at) / Fold change /veh PRRT2 (11749266_a_at) / RFU SNX32 (11753110_a_at) / Fold change /veh SNX32 (11753110_a_at) / RFU CDHR5 (11726645_a_at) / Fold change /veh CDHR5 (11726645_a_at) / RFU RCAN1 (11760418_a_at) / Fold change /veh RCAN1 (11760418_a_at) / RFU FAM167A (11723789_a_at) / Fold change /veh FAM167A (11723789_a_at) / RFU FAM26E (11764081_at) / Fold change /veh FAM26E (11764081_at) / RFU ISYNA1 (11749810_s_at) / Fold change /veh ISYNA1 (11749810_s_at) / RFU ACY1 (11761880_at) / Fold change /veh ACY1 (11761880_at) / RFU 11764098_at / Fold change /veh 11764098_at / RFU SAMD14 (11745864_x_at) / Fold change /veh SAMD14 (11745864_x_at) / RFU NPB (11741838_a_at) / Fold change /veh NPB (11741838_a_at) / RFU TMPRSS6 (11731388_a_at) / Fold change /veh TMPRSS6 (11731388_a_at) / RFU KRTAP10-2 (11738614_at) / Fold change /veh KRTAP10-2 (11738614_at) / RFU ARHGAP8 /// PRR5-ARHGAP8 (11727945_x_at) / Fold change /veh ARHGAP8 /// PRR5-ARHGAP8 (11727945_x_at) / RFU KRTAP5-7 /// NADSYN1 (11734609_at) / Fold change /veh KRTAP5-7 /// NADSYN1 (11734609_at) / RFU RASL12 (11751679_a_at) / Fold change /veh RASL12 (11751679_a_at) / RFU CDKN2B (11736163_a_at) / Fold change /veh CDKN2B (11736163_a_at) / RFU PRF1 (11729649_at) / Fold change /veh PRF1 (11729649_at) / RFU, ZNF638 /// ZNF638-IT1 / Fold change vs veh, ZNF638 /// ZNF638-IT1 / RFU, PANK3 / Fold change vs veh, PANK3 / RFU, SH3YL1 / Fold change vs veh, SH3YL1 / RFU, ZEB2 / Fold change vs veh, ZEB2 / RFU, NRIP1 / Fold change vs veh, NRIP1 / RFU, PTTG1IP / Fold change vs veh, PTTG1IP / RFU, CAPN2 / Fold change vs veh, CAPN2 / RFU, MED14 / Fold change vs veh, MED14 / RFU, SNORA58 / Fold change vs veh, SNORA58 / RFU, C1orf63 / Fold change vs veh, C1orf63 / RFU, LRRFIP1 / Fold change vs veh, LRRFIP1 / RFU, NDUFAF7 / Fold change vs veh, NDUFAF7 / RFU, SLC12A2 / Fold change vs veh, SLC12A2 / RFU, IBTK / Fold change vs veh, IBTK / RFU, ESF1 / Fold change vs veh, ESF1 / Fold change vs veh, TMEM50B / RFU, TAOK1 / Fold change vs veh, TAOK1 / RFU, ACBD3 / Fold change vs veh, ACBD3 / RFU, TMA16 / Fold change vs veh, TMA16 / RFU, RWDD3 / Fold change vs veh, RWDD3 / RFU, BCAT1 / Fold change vs veh, BCAT1 / RFU, EDEM3 / Fold change vs veh, EDEM3 / RFU, TMEM33 / Fold change vs veh, TMEM33 / RFU, WDR75 / Fold change vs veh, WDR75 / RFU, AHCTF1 / Fold change vs veh, AHCTF1 / RFU, TFRC / Fold change vs veh, TFRC / RFU, ZDHHC17 / Fold change vs veh, ZDHHC17 / RFU, NOM1 / Fold change vs veh, NOM1 / RFU, ARL8B / Fold change vs veh, ARL8B / RFU, ZBTB11 / Fold change vs veh, ZBTB11 / RFU, TAMM41 / Fold change vs veh, TAMM41 / RFU, KIAA1704 /// LOC100996395 / Fold change vs veh, KIAA1704 /// LOC100996395 / RFU, ING1 / Fold change vs veh, ING1 / RFU, TRMT61B / Fold change vs veh, TRMT61B / RFU, FUBP3 / Fold change vs veh, FUBP3 / RFU, TP53 / Fold change vs veh, TP53 / RFU, TNKS2 / Fold change vs veh, TNKS2 / RFU, ZFP14 / Fold change vs veh, ZFP14 / RFU, ACTR2 / Fold change vs veh, ACTR2 / RFU, PPP3R1 / Fold change vs veh, PPP3R1 / RFU, PIK3R1 / Fold change vs veh, PIK3R1 / RFU, HNRNPA1 / Fold change vs veh, HNRNPA1 / RFU, RNF170 / Fold change vs veh, RNF170 / RFU, ZNF28 / Fold change vs veh, ZNF28 / RFU, RNGTT / Fold change vs veh, RNGTT / RFU, OGT / Fold change vs veh, OGT / RFU, BRD1 / Fold change vs veh, BRD1 / RFU, MARS / Fold change vs veh, MARS / RFU, ZNF655 / Fold change vs veh, ZNF655 / RFU, FAHD1 / Fold change vs veh, FAHD1 / RFU, BDP1 / Fold change vs veh, BDP1 / RFU, LRRCC1 / Fold change vs veh, LRRCC1 / RFU, ARID1A / Fold change vs veh, ARID1A / RFU, ZNF146 / Fold change vs veh, ZNF146 / RFU, ZNF330 / Fold change vs veh, ZNF330 / RFU, GPN3 / Fold change vs veh, GPN3 / RFU, C9orf123 / Fold change vs veh, C9orf123 / RFU, N4BP2L2 / Fold change vs veh, N4BP2L2 / RFU, ARFIP1 / Fold change vs veh, ARFIP1 / RFU, FAM179B / Fold change vs veh, FAM179B / RFU, BCL10 / Fold change vs veh, BCL10 / RFU, UHRF1BP1L / Fold change vs veh, UHRF1BP1L / RFU, BET1 / Fold change vs veh, BET1 / RFU, CNOT2 / Fold change vs veh, CNOT2 / RFU, ZNF268 / Fold change vs veh, ZNF268 / Fold change vs veh, ZNF507 / RFU, DGCR2 / Fold change vs veh, DGCR2 / RFU, WDSUB1 / Fold change vs veh, WDSUB1 / Fold change vs veh, HSP90B1 /// MIR3652 / RFU, ADSS / Fold change vs veh, ADSS / RFU, GK / Fold change vs veh, GK / RFU, ZNF148 / Fold change vs veh, ZNF148 / RFU, TAF9 / Fold change vs veh, TAF9 / RFU, SLC1A5 / Fold change vs veh, SLC1A5 / RFU, SLMO2 / Fold change vs veh, SLMO2 / RFU, ABCC4 / Fold change vs veh, ABCC4 / RFU, LOC101060439 /// RAP1B / Fold change vs veh, LOC101060439 /// RAP1B / RFU, RFX7 / Fold change vs veh, RFX7 / RFU, GTPBP10 / Fold change vs veh, GTPBP10 / RFU, CNEP1R1 / Fold change vs veh, CNEP1R1 / RFU, BIVM-ERCC5 /// ERCC5 / Fold change vs veh, BIVM-ERCC5 /// ERCC5 / RFU, ILF3 / Fold change vs veh, ILF3 / RFU 11762660_at / Fold change /veh 11762660_at / RFU VCAN (11757783_s_at) / Fold change /veh VCAN (11757783_s_at) / RFU DDX43 (11728927_at) / Fold change /veh DDX43 (11728927_at) / RFU KRT8 (11758188_x_at) / Fold change /veh KRT8 (11758188_x_at) / RFU NKD1 (11759106_at) / Fold change /veh NKD1 (11759106_at) / RFU SRD5A1 (11742802_a_at) / Fold change /veh SRD5A1 (11742802_a_at) / RFU TPSAB1 /// TPSB2 (11721975_s_at) / Fold change /veh TPSAB1 /// TPSB2 (11721975_s_at) / RFU GSTM3 (11746129_a_at) / Fold change /veh GSTM3 (11746129_a_at) / RFU IL23R (11737362_x_at) / Fold change /veh IL23R (11737362_x_at) / RFU TMEM51 (11727254_a_at) / Fold change /veh TMEM51 (11727254_a_at) / RFU PIWIL2 (11732686_x_at) / Fold change /veh PIWIL2 (11732686_x_at) / RFU ORM1 (11744905_x_at) / Fold change /veh ORM1 (11744905_x_at) / RFU CCDC152 (11743942_at) / Fold change /veh CCDC152 (11743942_at) / RFU ECM1 (11717891_a_at) / Fold change /veh ECM1 (11717891_a_at) / RFU IL23R (11748794_a_at) / Fold change /veh IL23R (11748794_a_at) / RFU TNFAIP8L3 (11732012_x_at) / Fold change /veh TNFAIP8L3 (11732012_x_at) / RFU MBOAT4 (11741988_at) / Fold change /veh MBOAT4 (11741988_at) / RFU 11764193_at / Fold change /veh 11764193_at / RFU TMEM53 (11763286_at) / Fold change /veh TMEM53 (11763286_at) / RFU MAGEB2 (11727129_at) / Fold change /veh MAGEB2 (11727129_at) / RFU TMEM200A (11744735_a_at) / Fold change /veh TMEM200A (11744735_a_at) / RFU CCDC152 (11751479_a_at) / Fold change /veh CCDC152 (11751479_a_at) / RFU FAM211A (11726209_a_at) / Fold change /veh FAM211A (11726209_a_at) / RFU RGS16 (11746705_a_at) / Fold change /veh RGS16 (11746705_a_at) / RFU VCAN (11755009_s_at) / Fold change /veh VCAN (11755009_s_at) / RFU RHOB (11743442_s_at) / Fold change /veh RHOB (11743442_s_at) / RFU RGS16 (11720943_a_at) / Fold change /veh RGS16 (11720943_a_at) / RFU RGS16 (11720944_at) / Fold change /veh RGS16 (11720944_at) / RFU, VPS4B / Fold change vs veh, VPS4B / RFU, CREB1 / Fold change vs veh, CREB1 / RFU, DNAJC13 / Fold change vs veh, DNAJC13 / RFU, GNAQ / Fold change vs veh, GNAQ / RFU, CDK5R1 / Fold change vs veh, CDK5R1 / RFU, ZRANB3 / Fold change vs veh, ZRANB3 / RFU, CUL4A / Fold change vs veh, CUL4A / RFU, CCNY / Fold change vs veh, CCNY / RFU, UFL1 / Fold change vs veh, UFL1 / RFU, COG3 / Fold change vs veh, COG3 / RFU, DIAPH2 / Fold change vs veh, DIAPH2 / RFU, SKA2 / Fold change vs veh, SKA2 / RFU, AFF3 / Fold change vs veh, AFF3 / RFU, LMF1 / Fold change vs veh, LMF1 / RFU, IPO11 / Fold change vs veh, IPO11 / RFU, DFFB / Fold change vs veh, DFFB / RFU, FOXP1 / Fold change vs veh, FOXP1 / RFU, CARD8 / Fold change vs veh, CARD8 / RFU, STRN3 / Fold change vs veh, STRN3 / RFU, ADK / Fold change vs veh, ADK / RFU, RASSF2 / Fold change vs veh, RASSF2 / RFU, WIPF1 / Fold change vs veh, WIPF1 / RFU, LARP1B / Fold change vs veh, LARP1B / RFU, RASA1 / Fold change vs veh, RASA1 / RFU, RB1 / Fold change vs veh, RB1 / RFU, PPFIA1 / Fold change vs veh, PPFIA1 / RFU, MAT2A / Fold change vs veh, MAT2A / RFU, CCT5 / Fold change vs veh, CCT5 / RFU, WDR92 / Fold change vs veh, WDR92 / RFU, CUX1 / Fold change vs veh, CUX1 / RFU, TTC7A / Fold change vs veh, TTC7A / RFU, TMEM135 / Fold change vs veh, TMEM135 / RFU, DEPTOR / Fold change vs veh, DEPTOR / RFU, CPM / Fold change vs veh, CPM / RFU, DNAJB6 / Fold change vs veh, DNAJB6 / RFU, CACNA2D3 / Fold change vs veh, CACNA2D3 / RFU, DTX4 / Fold change vs veh, DTX4 / RFU, TFCP2 / Fold change vs veh, TFCP2 / RFU, GMCL1 /// GMCL1P1 / Fold change vs veh, GMCL1 /// GMCL1P1 / RFU, AEBP2 / Fold change vs veh, AEBP2 / RFU, SNHG1 /// SNORD22 /// SNORD25 /// SNORD26 /// SNORD27 /// SNORD28 /// SNORD29 /// SNORD31 / Fold change vs veh, SNHG1 /// SNORD22 /// SNORD25 /// SNORD26 /// SNORD27 /// SNORD28 /// SNORD29 /// SNORD31 / Fold change (Aza/veh), C12orf56 (ProbeSet 11735607_a_at) / Fold change (ACY-1035/veh), C12orf56 (ProbeSet 11735607_a_at) / Fold change (Aza/veh), FGFR1OP (ProbeSet 11751329_s_at) / Fold change (ACY-1035/veh), FGFR1OP (ProbeSet 11751329_s_at) / Fold change (Aza/veh), VPS36 (ProbeSet 11739960_a_at) / Fold change (ACY-1035/veh), VPS36 (ProbeSet 11739960_a_at) / RFU SYPL1 (11715823_x_at) / Fold change /veh SYPL1 (11715823_x_at) / RFU IGFBP7 (11715501_s_at) / Fold change /veh IGFBP7 (11715501_s_at) / RFU REEP3 (11722064_at) / Fold change /veh REEP3 (11722064_at) / RFU IGLL1 (11728026_x_at) / Fold change /veh IGLL1 (11728026_x_at): dose or concentration left out as unconfirmed
Conditions: ProbeSet 11746640_a_at; LIST D

Compound: Nc1ccc(-c2cccs2)cc1NC(=O)c1ccc2c(c1)cc(C1CC1)n2CCN1CCOCC1 [ACY-1035]
- RFU, RASSF2: 39.78 RFU

Reference: PMC5218480 (PLoS ONE, 2017)
